Patent US9260408B2, “Dihydroquinoline-2-one derivatives” (Hoffmann-La Roche Inc., priority 2011, dated 2016)
Structures can show the parent of a compound that is named as a salt.

Key:
human CYP11B2 = target: T1, human CYP11B2 (Homo sapiens, UniProt P19099); experiment: G-402 cellular enzyme assay, human CYP11B2 (aldosterone release, HTRF); format: cell-based; conditions: G-402 cells expressing human CYP11B2; 1 μM Deoxycorticosterone
T1 construct: expressed in transfected cells
T1 sequence (P19099 25-503): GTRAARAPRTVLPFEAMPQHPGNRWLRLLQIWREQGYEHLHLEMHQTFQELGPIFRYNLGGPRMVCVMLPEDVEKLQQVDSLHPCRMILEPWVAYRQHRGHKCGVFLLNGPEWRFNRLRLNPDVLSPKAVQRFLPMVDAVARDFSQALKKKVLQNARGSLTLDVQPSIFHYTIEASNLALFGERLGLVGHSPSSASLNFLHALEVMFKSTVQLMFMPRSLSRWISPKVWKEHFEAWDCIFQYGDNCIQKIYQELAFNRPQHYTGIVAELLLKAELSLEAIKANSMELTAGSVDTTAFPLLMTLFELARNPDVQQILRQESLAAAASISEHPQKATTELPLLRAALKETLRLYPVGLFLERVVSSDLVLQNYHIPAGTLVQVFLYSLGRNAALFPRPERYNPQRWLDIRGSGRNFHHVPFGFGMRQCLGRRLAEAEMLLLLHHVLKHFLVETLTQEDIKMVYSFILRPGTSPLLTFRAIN
Description: (§1) Herein we identified the use of the G-402 cell line as a host cell to ectopically express (transiently or stably) enzymes of the CYP11 family. Specifically we developed stable G-402 cells expressing ectopically human CYP11B1, human CYP11B2, human CYP11A1, cynomolgus CYP11B1 or cynomolgus CYP11B2 enzyme activity. Importantly the identified cell line G-402 expresses co-factors (adrenodoxin and adrenodoxin reductase) important for the activity of the CYP11 family and no relevant enzyme activity of the CYP11 family (in comparison to H295R cells) was detected in these cells. Therefore the G-402 cell line is uniquely suited as a host cell for the ectopic expression of enzymes from the CYP11 family.
(§2) G-402 cells can be obtained from ATCC(CRL-1440) and were originally derived from a renal leiomyoblastoma.
(§3) The expression plasmids contains the ORF for either human/cyno CYP11B1 or CYP11B2 under the control of a suitable promoter (CMV-promoter) and a suitable resistance marker (neomycin). Using standard techniques the expression plasmid is transfected into G-402 cells and these cells are then selected for expressing the given resistance markers. Individual cell-clones are then selected and assessed for displaying the desired enzymatic activity using 11-Deoxycorticosterone (Cyp11B2) or 11-Deoxycortisol (Cyp11B1) as a substrate.
(§4) G-402 cells expressing CYP11 constructs were established as described above and maintained in McCoy's 5a Medium Modified, ATCC Catalog No. 30-2007 containing 10% FCS and 400 μg/ml G418 (Geneticin) at 37° C. under an atmosphere of 5% CO2/95% air. Cellular enzyme assays were performed in DMEM/F12 medium containing 2.5% charcoal treated FCS and appropriate concentration of substrate (0.3-10 uM 11-Deoxycorticosterone, 11-Deoxycortisol or Corticosterone). For assaying enzymatic activity, cells were plated onto 96 well plates and incubated for 16 h. An aliquot of the supernatant is then transferred and analyzed for the concentration of the expected product (Aldosterone for CYP11B2; Cortisol for CYP11B1). The concentrations of these steroids can be determined using HTRF assays from CisBio analyzing either Aldosterone or Cortisol.
(§5) Inhibition of the release of produced steroids can be used as a measure of the respective enzyme inhibition by test compounds added during the cellular enzyme assay. The dose dependent inhibition of enzymatic activity by a compound is calculated by means of plotting added inhibitor concentrations (x-axes) vs. measured steroid/product level (y-axes). The inhibition is then calculated by fitting the following 4-parameter sigmoidal function (Morgan-Mercer-Flodin (MMF) model) to the raw data points using the least squares method:
(§6) [formula] wherein, A is the maximum y value, B is the EC50 factor determined using XLFit, C is the minimum y value and D is the slope value.
(§7) EC50 values for compounds claimed herein were tested with the G402-based assay system described. Cyp11B2 enzyme activity was tested in presence of 1 μM Deoxycorticosterone and variable amounts of inhibitors; Cyp11B1 enzyme activity was tested in presence of 1 μM Deoxycortisol and variable amounts of inhibitors.

human CYP11B1 = target: T2, human CYP11B1 (Homo sapiens, UniProt P15538); experiment: G-402 cellular enzyme assay, human CYP11B1 (cortisol release, HTRF); format: cell-based; conditions: G-402 cells expressing human CYP11B1; 1 μM Deoxycortisol
T2 construct: expressed in transfected cells
T2 sequence (P15538 25-503): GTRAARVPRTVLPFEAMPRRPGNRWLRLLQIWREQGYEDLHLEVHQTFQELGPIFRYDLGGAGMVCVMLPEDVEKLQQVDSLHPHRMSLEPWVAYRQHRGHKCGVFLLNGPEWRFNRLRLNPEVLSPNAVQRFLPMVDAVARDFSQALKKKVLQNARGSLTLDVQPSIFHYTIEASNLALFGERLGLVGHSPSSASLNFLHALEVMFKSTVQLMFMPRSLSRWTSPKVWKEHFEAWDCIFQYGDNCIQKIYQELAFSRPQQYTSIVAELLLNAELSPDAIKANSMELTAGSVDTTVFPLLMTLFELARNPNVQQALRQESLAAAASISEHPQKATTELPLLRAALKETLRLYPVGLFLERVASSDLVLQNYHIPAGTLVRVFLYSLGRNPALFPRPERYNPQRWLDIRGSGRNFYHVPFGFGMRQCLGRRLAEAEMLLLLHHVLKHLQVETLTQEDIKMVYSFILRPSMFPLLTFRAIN
Description: as §1, §2, §3, §4, §5, §6, §7

| Structure (SMILES) | EC50 (human CYP11B2) [nM] | EC50 (human CYP11B1) [nM] |
| --- | --- | --- |
| CCS(=O)(=O)NCc1cncc(-c2cc(F)c3c(c2)CCC(=O)N3C)c1 [Example 208, Ethanesulfonic acid [5-(8-fluoro-1-methyl-2-oxo-1,2,3,4-tetrahydro-quinolin-6-yl)-pyridin-3-ylmethyl]-amide] | 59 | 4200 |
| CN1C(=O)CCc2cc(-c3cncc(NC(=O)CO)c3)ccc21 [Example 3, 2-Hydroxy-N-[5-(1-methyl-2-oxo-1,2,3,4-tetrahydro-quinolin-6-yl)-pyridin-3-yl]-acetamide] | 715 | > 3000 |
| CC(N[S@+]([O-])C(C)(C)C)c1cncc(-c2ccc3c(c2)CCC(=O)N3C)c1Cl (single isomer, unassigned) [Example 249, (R)-2-Methyl-propane-2-sulfinic acid {(R or S)-1-[4-chloro-5-(1-methyl-2-oxo-1,2,3,4-tetrahydro-quinolin-6-yl)-pyridin-3-yl]-ethyl}-amide] | 14 | 261 |
| Cc1noc(C)c1C(=O)NCc1cncc(-c2ccc3c(c2)CCC(=O)N3C)c1C [Example 223, 3,5-Dimethyl-isoxazole-4-carboxylic acid [4-methyl-5-(1-methyl-2-oxo-1,2,3,4-tetrahydro-quinolin-6-yl)-pyridin-3-ylmethyl]-amide] | 36 | 2860 |
| Cc1nc(C(=O)NCc2cncc(-c3ccc4c(c3)CCC(=O)N4C)c2)c(C)o1 [Example 111] | 4 | 81 |
| CN1C(=O)CCc2cc(-c3cncc(CNC(=O)c4cn(CC(F)(F)F)nc4C4CC4)c3)ccc21 [Example 96] | 22 | 1680 |
| Cc1cnc(C(=O)NCc2cncc(-c3ccc4c(c3)CCC(=O)N4C)c2)cn1 [Example 124] | 5 | 138 |
| COC[C@@H]1CCCN1Cc1cncc(-c2ccc3c(c2)CCC(=O)N3C)c1 [Example 21] | 21 | 260 |
| CCS(=O)(=O)N(C)Cc1cncc(-c2ccc3c(c2)CCC(=O)N3C)c1 [Example 182, Ethanesulfonic acid methyl-[5-(1-methyl-2-oxo-1,2,3,4-tetrahydro-quinolin-6-yl)-pyridin-3-ylmethyl]-amide] | 6 | 302 |
| CN1C(=O)CCc2cc(-c3cncc(CNC(=O)c4coc(C(F)(F)F)c4)c3)ccc21 [Example 84] | 34 | 526 |
| CC(N)c1cncc(-c2ccc3c(c2)CCC(=O)N3C)c1 (single isomer, unassigned) [Example 64, 6-[5-((S or R)-1-Amino-ethyl)-pyridin-3-yl]-1-methyl-3,4-dihydro-1H-quinolin-2-one hydrochloride] | 423 | 12300 |
| CN1C(=O)CCc2cc(-c3cncc(CN[S@+]([O-])C(C)(C)C)c3Cl)ccc21 [Example 217, (R)-2-Methyl-propane-2-sulfinic acid [4-chloro-5-(1-methyl-2-oxo-1,2,3,4-tetrahydro-quinolin-6-yl)-pyridin-3-ylmethyl]-amide] | 29 | 1260 |
| CN1C(=O)CCc2cc(-c3cncc(CN4CCCC4=O)c3)ccc21 [Example 18] | 58 | 750 |
| Cc1c(CNC(=O)c2ncccc2Cl)cncc1-c1cc2c(cc1F)N(C)C(=O)CC2 [Example 227, 3-Chloro-pyridine-2-carboxylic acid [5-(7-fluoro-1-methyl-2-oxo-1,2,3,4-tetrahydro-quinolin-6-yl)-4-methyl-pyridin-3-ylmethyl]-amide] | 4 | 157 |
| CCS(=O)(=O)NCc1cncc(-c2cc3c4c(c2)CCC(=O)N4CCC3)c1 [Example 235, Ethanesulfonic acid [5-(3-oxo-2,3,6,7-tetrahydro-1H,5H-pyrido[3,2,1-ij]quinolin-9-yl)-pyridin-3-ylmethyl]-amide] | 109 | 4660 |
| Cc1noc(C)c1C(=O)NCc1cncc(-c2cc3c(cc2F)N(C)C(=O)CC3)c1 [Example 127] | 12 | 400 |
| CN1C(=O)CCc2cc(-c3cncc(CNC(=O)c4cccnn4)c3)ccc21 [Example 85] | 3 | 48 |
| Cc1c(CNC(=O)c2ncccc2Cl)cncc1-c1ccc2c(c1)CCC(=O)N2C [Example 224, 3-Chloro-pyridine-2-carboxylic acid [4-methyl-5-(1-methyl-2-oxo-1,2,3,4-tetrahydro-quinolin-6-yl)-pyridin-3-ylmethyl]-amide] | 6 | 173 |
| CN1C(=O)CCc2cc(-c3cncc(CNC(=O)c4ncccc4Cl)c3Cl)ccc21 [Example 220, 3-Chloro-pyridine-2-carboxylic acid [4-chloro-5-(1-methyl-2-oxo-1,2,3,4-tetrahydro-quinolin-6-yl)-pyridin-3-ylmethyl]-amide] | 2 | 40 |
| CN1C(=O)CCc2cc(-c3cncc(CNC(=O)c4ncccn4)c3)ccc21 [Example 99] | 35 | 1120 |
| CCS(=O)(=O)N(C)Cc1cncc(-c2cc3c(cc2F)N(C)C(=O)CC3)c1 [Example 211, Ethanesulfonic acid [5-(7-fluoro-1-methyl-2-oxo-1,2,3,4-tetrahydro-quinolin-6-yl)-pyridin-3-ylmethyl]-methyl-amide] | 5 | 119 |
| Cc1c(CN)cncc1-c1ccc2c(c1)CCC(=O)N2C [Example 222, 6-(5-Aminomethyl-4-methyl-pyridin-3-yl)-1-methyl-3,4-dihydro-1H-quinolin-2-one hydrochloride] | 4 | 1010 |
| Cc1cccnc1C(=O)NC1(c2cncc(-c3ccc4c(c3)CCC(=O)N4C)c2)CC1 [Example 143] | 9 | 51 |
| CN1C(=O)CCc2cc(-c3cncc(CNC(=O)c4ncc(C(F)(F)F)cn4)c3)ccc21 [Example 123] | 62 | 2920 |
| CN1C(=O)CCc2cc(-c3cncc(CNS(=O)(=O)c4cn(C)cn4)c3)ccc21 [Example 157, 1-Methyl-1H-imidazole-4-sulfonic acid [5-(1-methyl-2-oxo-1,2,3,4-tetrahydro-quinolin-6-yl)-pyridin-3-ylmethyl]-amide] | 463 | 3260 |
| CN1C(=O)CCc2cc(-c3cncc(CN)c3)c(F)cc21 [Example 73, 6-(5-Aminomethyl-pyridin-3-yl)-7-fluoro-1-methyl-3,4-dihydro-1H-quinolin-2-one] | 17 | 575 |
| CN1C(=O)CCc2cc(-c3cncc(CN4CCCCC4=O)c3)ccc21 [Example 19] | 23 | 800 |
| CN1C(=O)CCc2cc(-c3cncc(NCc4ccccc4)n3)c(F)cc21 [Example 27] | 7 | 270 |
